Data on 2 compounds can be found in US4251528A, “Phthalazin-4-ylacetic acid derivatives” (Imperial Chemical Industries Limited, priority 1977, dated 1981).

The term Ki denotes the equilibrium dissociation constant of an inhibitor or competing ligand from its target. The low end stands for higher affinity, the high end for lower affinity.

Molecules are shown by their SMILES.

The subject of data set [1] is carageenin induced oedema. Type of data set: in vivo, rats. To be noted: for overt toxicity: rat, in vivo; for inhibition of carageenin induced oedema: rats. On the procedure: The compounds of the invention may therefore in addition be useful in the treatment of painful inflammatory joint diseases such as rheumatoid arthritis, osteoarthritis and ankylosing spondylitis. In this connection it is envisaged that they would be administered primarily orally at a daily dose in the range 10-50 mg./kg.

The target of a further data set is T1, aldose reductase (Rattus norvegicus, UniProt P07943).
T1 construct: the eye lenses and sciatic nerves are removed; from tissue; host or cells: rat sciatic nerve (and eye lens), enzyme acting in the living animal
Kind of data set: streptozotocin diabetic rat test, residual sorbitol levels in tissues. The class given is in vivo. To be noted: oral dosing at 10 mg./kg. for 5 days. How it is done: Thus, rats are made diabetic by dosing with streptozotocin and are then dosed daily with the test compound for 5 days. The animals are then killed and the eye lenses and sciatic nerves are removed. After a standard work-up procedure the residual sorbitol levels in each tissue are determined by gas liquid chromatography after conversion to the poly trimethylsilyl derivatives. Inhibition of aldose reductase in vivo is then assessed by comparing the residual sorbitol levels in tissues from the dosed diabetic group of rats with those of an undosed group of diabetic rats and an undosed, normal group of rats.
Alternatively, a modified test may be used in which the streptozotocin induced diabetic rats are dosed daily with test compound for two days. After 2-4 hours from the final dose the animals are killed and the sciatic nerves are removed and assessed for residual sorbitol levels as described above.
Active compounds in either of these tests reduce residual sorbitol levels to levels which are similar to those of normal, undosed rats. […] No overt toxic or other undesirable effects were detected with compounds of formula I at 100 mg./kg. in the above tests.

Data set [2] has as its target T2, purified aldose reductase isolated from bovine lenses (Bos taurus, UniProt P16116).
T2 construct: purified aldose reductase is isolated in known manner from bovine lenses; from tissue; host or cells: bovine lens
The data set can be described thus: in vitro inhibition of purified aldose reductase (reduction of glucose to sorbitol, spectrophotometric). Type of data set: biochemical. On the procedure:
Thus, purified aldose reductase is isolated in known manner from bovine lenses. The percentage inhibition of these enzyme's ability in vitro to reduce aldoses to polyhydric alcohols, and particularly to reduce glucose to sorbitol, caused by a test compound is then determined using standard spectrophotometric methods. […] Thus, by way of illustration, 2-(2-fluoro-4-bromobenzyl)-1,2-dihydro-1-oxophthalazin-4-ylacetic acid has a Ki of 2.0×10^-8 M.

With `O=C(O)Cc1nn(Cc2ccc(Br)cc2F)c(=O)c2ccccc12` [2-(2-fluoro-4-bromobenzyl)-1,2-dihydro-1-oxophthalazin-4-ylacetic acid], in data set [1], the overt toxicity result is “without any sign of overt toxicity” and the “inhibition of carageenin induced oedema” value is given as “significant inhibition”. Further, the “residual sorbitol level in the sciatic nerve, relative to control undosed diabetic rats” value on aldose reductase was “approximately 60%”. Further, the Ki in data set [2] worked out at 20 nM.
As for `O=C(O)Cc1nn(Cc2ccc(Br)c(Cl)c2)c(=O)c2ccccc12` [2-(3-chloro-4-bromobenzyl)-1,2-dihydro-1-oxophthalazin-4-ylacetic acid], in data set [1], the overt toxicity entry is “without any sign of overt toxicity” and the “inhibition of carageenin induced oedema” value is “significant inhibition”.
